Source: article PMC12481249
Like-named read-outs stand apart in the source and are kept apart here.

How the values were obtained:
MCF-7 Br Ca cell line = experiment: MTT cytotoxicity (antiproliferative) assay
Protocol: Cytotoxic activity evaluation
To measure the cytotoxic actvity of the synthesized naphthalen-1-yloxyacetamide
tethered acrlamide derivatives 5a-j and 6a,b in breast adenocarcinoma (MCF-7) cell line
(ATCC Cat. No. HTB-22). Cell viability assay was assessed using MTT assay method.
Cells at density of 1 x 104 were seeded in a 96-well plate at 37 °C for 24 h under 5%
CO2. After incubation, the cells were treated with different concentrations of the
investigated naphthalen-1-yloxyacetamide tethered acrlamide derivatives 5a-j and 6a,b
and incubated for 24 h, then 20 l of MTT solution at 5 mg/mL was applied and
incubated for 4 h at 37 °C. Dimethyl sulphoxide (DMSO) in volume of 100 µl was
added to each well to dissolve the purple formazan that had formed. The color intensity
of the formazan product, which represents the growth condition of the cells, is quantified
by using an ELISA plate reader (EXL 800, USA) at 570 nm absorbance. The experimental conditions were carried out with at least three replicates, and the experiments were repeated at least three times.

aromatase enzyme = molecular target: T1, aromatase enzyme (Homo sapiens, UniProt P11511); experiment: Aromatase inhibition assay (ELISA method kit); type: biochemical; conditions: five concentrations
T1 construct: IC50 values against aromatase enzyme in MCF-7 Br Ca cells treated with; endogenous in cells; host or cells: MCF-7
T1 sequence (P11511 1-503): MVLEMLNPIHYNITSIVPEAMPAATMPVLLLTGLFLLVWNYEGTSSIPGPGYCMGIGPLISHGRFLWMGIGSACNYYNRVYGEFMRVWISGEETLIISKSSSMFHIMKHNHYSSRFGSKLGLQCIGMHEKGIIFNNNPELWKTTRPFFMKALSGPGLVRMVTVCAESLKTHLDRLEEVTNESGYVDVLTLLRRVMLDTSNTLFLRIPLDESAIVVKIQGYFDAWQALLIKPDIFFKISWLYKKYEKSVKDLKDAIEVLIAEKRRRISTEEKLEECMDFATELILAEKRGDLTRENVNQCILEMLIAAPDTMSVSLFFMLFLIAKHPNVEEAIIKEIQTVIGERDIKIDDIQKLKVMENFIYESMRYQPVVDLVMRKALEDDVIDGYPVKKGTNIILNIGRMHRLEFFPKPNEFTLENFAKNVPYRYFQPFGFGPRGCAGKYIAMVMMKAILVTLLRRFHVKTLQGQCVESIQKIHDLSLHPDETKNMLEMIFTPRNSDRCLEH

MCF-7 Br Ca cells [1] = experiment: DNA flow cytometry cell cycle analysis; type: cell-based; conditions: MCF-7, at the IC50 value for 48 h
From the text: It is frequently utilized in cell biology to comprehend growth regulation, cell proliferation and the impact of both drugs and genetic alterations on cellular division.[44] Recognizing and manipulating the phase at which cell cycle arrest occurs can improve the therapeutic efficacy and selectivity of chemotherapeutic drugs, as many cancer therapies target rapidly proliferating cells.[45] The most cytotoxic naphthalen-1-yloxyacetamide-tethered acrylamide conjugate, 5d, was chosen in order to further assess its impact on the advancement on cell cycle in MCF-7 Br Ca cells. […] There was also a control experiment that receives no treatment. According to Flow cytometric study, naphthalen-1-yloxyacetamide-tethered acrylamide conjugate 5d treatment causes a G1 stoppage that is almost 1.4-times greater than that of the control (Fig. 4).
S4.2.3. Cell cycle analysis of compound 5d
Cell cycle analysis in MCF-7 cells was investigated using fluorescent Annexin V-FITC/ PI detection kit (BioVision EZCellTM Cell Cycle Analysis Kit Catalog #K920) by flow […]
washed twice in PBS. After that, the cells were incubated at 37 °C and 5% CO2. The […]
twice in PBS, fixed with 70% ethanol, rinsed again with PBS. Afterward, medium was stained with DNA fluorochrome PI for 15 min at 37 °C. The samples were immediately analyzed using Facs Calibur flow cytometer (Becton and Dickinson, Heidelberg, […]
S4.2.4. […]

MCF-7 Br Ca cells [2] = experiment: FITC-Annexin V/PI apoptosis assay; type: cell-based; conditions: MCF-7, 48 h
Bax = Bax level assay in MCF-7 cells; type: cell-based; conditions: MCF-7, qRT-PCR technique (SI: ELISA kit), IC50 concentration
From the text: (§1) Programmed cell death, or apoptosis, is a complex series of biochemical processes.[50] Pro-apoptotic proteins include Bad, Bax, Bid and Bim, while anti-apoptotic members include Bcl-2 and Bc-LXI.[51,52] The anti-apoptotic proteins prevent cytochrome-c from release, which inhibits apoptosis, while pro-apoptotic members activate the release of cytochrome-c.[53] When there is a higher ratio of pro-apoptotic proteins than anti-apoptotic ones, the outer mitochondrial membrane becomes permeable leading to a cascade of events.[54] The cytochrome-c is released, which activates caspase 9, which in turn triggers caspase 3, which triggers apoptotic processes.[55] […] According to the data, the tested compound's Bax gen level increased noticeably compared with control. […]
(§2) Annexin V-FITC/ PI dye for 15 min in the dark at 37 °C. The samples were immediately analyzed using FACS Calibur flow cytometer (Becton and Dickinson, Heidelberg, […]
(§3) Bcl-2, Bax and Caspase 9 activities in MCF-7 Br Ca cells were detected in the presence of conjugate 5d at the IC50 concentration (µM). The levels of anti-apoptotic marker Bcl-2, apoptotic markers Bax as well as Caspase 9 were assessed using appropriate ELISA kit. […]
(§4) with IC50 concentration of compound 5d. […] The samples were measured at 450 nm in ROBONEK P2000 ELISA reader. […]

Bcl-2 = Bcl-2 level assay in MCF-7 cells; type: cell-based; conditions: MCF-7, qRT-PCR technique (SI: ELISA kit), IC50 concentration
From the text: as §1, §2, §3, §4

caspase 9 = experiment: Caspase 9 level assay in MCF-7 cells; type: cell-based; conditions: MCF-7, qRT-PCR technique (SI: ELISA kit), IC50 concentration
From the text: An essential initiator caspase in the intrinsic apoptotic process is caspase 9.[56] It is essential for inducing cell death in response to internal stress such as oxidative stress, DNA damage, or oncogene activation conditions, which are frequently present in cancer cells.[57] Therefore, therapeutic strategies that enhance or restore its activity can potentially overcome apoptosis resistance in tumors.[58] In this context, naphthalene-1-yloxyacetamide tethered acrylamide conjugate 5d were evaluated as caspase 9 activator against MCF-7 cells using qRT-PCR technique. […] It is worth mentioning that, the level of caspase 9 protein level is increased 8.2-fold more than the negative control.
Apoptosis in MCF-7 cells was investigated using fluorescent Annexin V-FITC/ PI detection kit (BioVision Annexin V-FITC Apoptosis Detection Kit, Catalog #: K101) by […]
as §2
6. […]
as §3, §4

aromatase = molecular target: aromatase; design: method as in PMID 31416738; conditions: cited from earlier work
[3] = Homo sapiens, MCF7, read-out: IC50 MCF-7, MTT, MCF-7 Br Ca cell line, mean ± SD (n = 3)

Q: With O=C(COc1cccc2ccccc12)NNC(=O)/C(=C/c1ccco1)NC(=O)c1ccccc1 [6a, (Z)-N-(1-(Furan-2-yl)-3-(2-(2-(naphthalen-1-yloxy)acetyl)hydrazineyl)-3-oxoprop-1-en-2-yl)benzamide] as the molecule, how does the IC50 (MCF-7 Br Ca cell line; [3]) read?
A: 9.18 ± 0.66 µM

Q: For COc1ccc(/C=C(\NC(=O)c2ccccc2)C(=O)NNC(=O)COc2cccc3ccccc23)cc1OC [5f, (Z)-N-(1-(3,4-Dimethoxyphenyl)-3-(2-(2-(naphthalen-1-yloxy)acetyl)hydrazineyl)-3-oxoprop-1-en-2-yl)benzamide], which IC50 (MCF-7 Br Ca cell line; [3]) is on record?
A: 28.7 ± 1.45 µM

Q: With O=C(COc1cccc2ccccc12)NNC(=O)/C(=C/c1cc(Br)c(O)c(Br)c1)NC(=O)c1ccccc1 [5g, (Z)-N-(1-(3,5-Dibromo-4-hydroxyphenyl)-3-(2-(2-(naphthalen-1-yloxy)acetyl)hydrazineyl)-3-oxoprop-1-en-2-yl)benzamide] as the molecule, how does the IC50 (MCF-7 Br Ca cell line; [3]) read?
A: 18.5 ± 1.26 µM

Q: Which IC50 (aromatase enzyme) does the source give for O=C(COc1cccc2ccccc12)NNC(=O)/C(=C/c1ccc([N+](=O)[O-])cc1)NC(=O)c1ccccc1 [5c, (Z)-N-(3-(2-(2-(Naphthalen-1-yloxy)acetyl)hydrazineyl)-1-(4-nitrophenyl)-3-oxoprop-1-en-2-yl)benzamide] here?
A: 0.143 µM

Q: For COc1ccc(C(=O)N/C(=C\c2ccco2)C(=O)NNC(=O)COc2cccc3ccccc23)cc1 [6b, (Z)-N-(1-(Furan-2-yl)-3-(2-(2-(naphthalen-1-yloxy)acetyl)hydrazineyl)-3-oxoprop-1-en-2-yl)-4-methoxybenzamide], which IC50 (MCF-7 Br Ca cell line; [3]) is on record?
A: 11.5 ± 0.76 µM

Q: For COc1ccc(C(=O)N/C(=C\c2cc(OC)c(OC)c(OC)c2)C(=O)NNC(=O)COc2cccc3ccccc23)cc1 [5j, (Z)-4-Methoxy-N-(3-(2-(2-(naphthalen-1-yloxy)acetyl)hydrazineyl)-3-oxo-1-(3,4,5-trimethoxyphenyl)prop-1-en-2-yl)benzamide], which IC50 (MCF-7 Br Ca cell line; [3]) is on record?
A: 21.2 ± 0.92 µM

Q: With COc1ccc(/C=C(\NC(=O)c2ccccc2)C(=O)NNC(=O)COc2cccc3ccccc23)cc1 [5d, (Z)-N-(1-(4-methoxyphenyl)-3-(2-(2-(naphthalen-1-yloxy)acetyl)hydrazineyl)-3-oxoprop-1-en-2-yl)benzamide] as the molecule, how does the IC50 (aromatase enzyme) read?
A: 0.078 µM

Q: What about the “G1 stoppage relative to control” value (MCF-7 Br Ca cells [1]) of the same molecule?
A: ~1.4 times

Q: And the “early apoptosis fold increase vs control” value (MCF-7 Br Ca cells [2])?
A: 33.6 fold

Q: And the “late apoptosis fold increase vs control” value (MCF-7 Br Ca cells [2])?
A: 42.0 fold

Q: What about the “late apoptotic cells percentage” value (MCF-7 Br Ca cells [2]; IC50 concentration, control untreated 0.14%) of the same molecule?
A: 5.88%

Q: What about the early apoptosis percentage (MCF-7 Br Ca cells [2]; IC50 concentration, no treatment control 0.57%) of the same molecule?
A: 19.17%

Q: And the “Bax level fold vs untreated MCF-7 cells” value (Bax)?
A: 4.0 fold

Q: What about the “Bcl-2 gene level factor vs negative control” value (Bcl-2) of the same molecule?
A: 0.3

Q: And the “caspase 9 level fold vs negative control” value (caspase 9)?
A: 8.2 fold

Q: And the IC50 (MCF-7 Br Ca cell line; [3])?
A: 3.03 µM

Q: What about the IC50 (MCF-7 Br Ca cell line; read-out: IC50 MCF-7, MTT, MCF-7 Br Ca cell line, mean ± SD (n = 3)) of the same molecule?
A: 2.33 ± 0.1 µM

Q: With O=C(COc1cccc2ccccc12)NNC(=O)/C(=C/c1ccc(Cl)cc1)NC(=O)c1ccccc1 [5a, (Z)-N-(1-(4-Chlorophenyl)-3-(2-(2-(naphthalen-1-yloxy)acetyl)hydrazineyl)-3-oxoprop-1-en-2-yl)benzamide] as the molecule, how does the IC50 (MCF-7 Br Ca cell line; [3]) read?
A: 51.8 ± 1.51 µM

Q: With COc1cc(/C=C(\NC(=O)c2ccccc2)C(=O)NNC(=O)COc2cccc3ccccc23)cc(OC)c1OC [5i, (Z)-N-(3-(2-(2-(Naphthalen-1-yloxy)acetyl)hydrazineyl)-3-oxo-1-(3,4,5-trimethoxyphenyl)prop-1-en-2-yl)benzamide] as the molecule, how does the IC50 (MCF-7 Br Ca cell line; [3]) read?
A: 16.9 ± 0.82 µM

Q: For O=S(=O)(NCc1cccc(CNS(=O)(=O)c2ccc3ccccc3c2)c1)c1ccc2ccccc2c1 [IV], which IC50 (aromatase) is on record?
A: 0.21 µM

Q: For O=C(COc1cccc2ccccc12)NNC(=O)/C(=C/c1ccc(Br)cc1)NC(=O)c1ccccc1 [5b, (Z)-N-(1-(4-Bromophenyl)-3-(2-(2-(naphthalen-1-yloxy)acetyl)hydrazineyl)-3-oxoprop-1-en-2-yl)benzamide], which IC50 (MCF-7 Br Ca cell line; [3]) is on record?
A: 30.7 ± 1.18 µM

Q: With CN(C)c1ccc(/C=C(\NC(=O)c2ccccc2)C(=O)NNC(=O)COc2cccc3ccccc23)cc1 [5e, (Z)-N-(1-(4-(Dimethylamino)phenyl)-3-(2-(2-(naphthalen-1-yloxy)acetyl)hydrazineyl)-3-oxoprop-1-en-2-yl)benzamide] as the molecule, how does the IC50 (aromatase enzyme) read?
A: 0.093 µM

Q: With COc1ccc(/C=C(\NC(=O)c2ccccc2)C(=O)NNC(=O)COc2cccc3ccccc23)c(OC)c1OC [5h, (Z)-N-(3-(2-(2-(Naphthalen-1-yloxy)acetyl)hydrazineyl)-3-oxo-1-(2,3,4-trimethoxyphenyl)prop-1-en-2-yl)benzamide] as the molecule, how does the IC50 (MCF-7 Br Ca cell line; [3]) read?
A: 25.9 ± 1.41 µM
